The source of these data is US7820701B2, “Amorphous lercanidipine hydrochloride and uses thereof” (Recordati Ireland Limited, priority 2005, dated 2010).

Where a name gives a salt, the structure may show the parent alone.

The data set can be described thus: Aqueous solubility of amorphous vs crystalline lercanidipine hydrochloride. The conditions noted are these: water, stirring at 27-28° C. for 24 hr, filtered, HPLC. The format is physicochemical. How it is done: The aqueous solubility of amorphous lercanidipine hydrochloride, was compared to the solubility of crystalline lercanidipine hydrochloride. The solubility of the respective samples was determined by suspending 20-30 mg of sample test was in 10 mL water and stirring at 27-28° C. for 24 hr. The sample was then filtered through a PVDF filter (0.2 micron) and the solution diluted with acetonitrile and analyzed by HPLC.

For the compound `COC(=O)C1=C(C)NC(C)=C(C(=O)OC(C)(C)CN(C)CCC(c2ccccc2)c2ccccc2)C1c1cccc([N+](=O)[O-])c1` (stereo not drawn) [Amorphous lercanidipine HCl (Example 1), methyl 1,1,N-trimethyl-N-(3,3-diphenylpropyl)-2-aminoethyl 1,4-dihydro-2,6-dimethyl-4-(3-nitrophenyl)pyridine-3,5-dicarboxylate], the SOLUBILITY was 1.5 mg/L. Next, `COC(=O)C1=C(C)NC(C)=C(C(=O)OC(C)(C)CN(C)CCC(c2ccccc2)c2ccccc2)C1c1cccc([N+](=O)[O-])c1` (stereo not drawn) [Amorphous lercanidipine HCl (Example 2), methyl 1,1,N-trimethyl-N-(3,3-diphenylpropyl)-2-aminoethyl 1,4-dihydro-2,6-dimethyl-4-(3-nitrophenyl)pyridine-3,5-dicarboxylate]: 1.5 mg/L. Next, `COC(=O)C1=C(C)NC(C)=C(C(=O)OC(C)(C)CN(C)CCC(c2ccccc2)c2ccccc2)C1c1cccc([N+](=O)[O-])c1` (stereo not drawn) [Crystalline lercanidipine HCl (Form I), methyl 1,1,N-trimethyl-N-(3,3-diphenylpropyl)-2-aminoethyl 1,4-dihydro-2,6-dimethyl-4-(3-nitrophenyl)pyridine-3,5-dicarboxylate, reference compound]: 0.65 mg/L.
